Structures are written as SMILES.

One assay concerns interferon (α) (IFN-α). The assay can be described thus: Cytokine induction in human cells: IFN-α secreted by PBMC into culture media (ELISA). It counts as cell-based. The following applies: Table 10; for minimal effective concentration: human PBMC, lowest tested concentration inducing IFN-α over usually 20 pg/mL, median where more than one experiment, read-out: Minimum Effective Concentration (μM) IFN; for Maximal Response (pg/mL) IFN: maximal response in dose response curve, * = below experimental background level, median. From the text: (§1) Cytokine Induction in Human Cells
(§2) An in vitro human blood cell system is used to assess cytokine induction. Activity is based on the measurement of interferon (α) and tumor necrosis factor (α) (IFN-α and TNF-α, respectively) secreted into culture media as described by Testerman et. al. in “Cytokine Induction by the Immunomodulators Imiquimod and S-27609”, Journal of Leukocyte Biology, 58, 365-372 (September, 1995).
(§3) Blood Cell Preparation for Culture
(§4) Whole blood from healthy human donors is collected by venipuncture into vacutainer tubes or syringes containing EDTA. Peripheral blood mononuclear cells (PBMC) are separated from whole blood by density gradient centrifugation using HISTOPAQUE-1077 (Sigma, St. Louis, Mo.) or Ficoll-Paque Plus (Amersham Biosciences Piscataway, N.J.). Blood is diluted 1:1 with Dulbecco's Phosphate Buffered Saline (DPBS) or Hank's Balanced Salts Solution (HBSS). Alternately, whole blood is placed in Accuspin (Sigma) or LeucoSep (Oreiner Bio-One, Inc., Longwood, Fla.) centrifuge frit tubes containing density gradient medium. The PBMC layer is collected and washed twice with DPBS or HBSS and re-suspended at 4×10^6 cells/mL in RPMI complete. The PBMC suspension is added to 96 well flat bottom sterile tissue culture plates containing an equal volume of RPMI complete media containing test compound.
(§5) The compounds are solubilized in dimethyl sulfoxide (DMSO). The DMSO concentration should not exceed a final concentration of 1% for addition to the culture wells. The compounds are generally tested at concentrations ranging from 30-0.014 μM. Controls include cell samples with media only, cell samples with DMSO only (no compound), and cell samples with reference compound.
(§6) The solution of test compound is added at 60 μM to the first well containing RPMI complete and serial 3 fold dilutions are made in the wells. The PBMC suspension is then added to the wells in an equal volume, bringing the test compound concentrations to the desired range (usually 30-0.014 μM). The final concentration of PBMC suspension is 2×10^6 cells/mL. The plates are covered with sterile plastic lids, mixed gently and then incubated for 18 to 24 hours at 37° C. in a 5% carbon dioxide atmosphere.
(§7) Following incubation the plates are centrifuged for 10 minutes at 1000 rpm (approximately 200×g) at 4° C. The cell-free culture supernatant is removed and transferred to sterile polypropylene tubes. Samples are maintained at −30 to −70° C. until analysis. The samples are analyzed for IFN-α by ELISA and for TNF-α by IGEN/BioVeris Assay.
(§8) Interferon (α) and Tumor Necrosis Factor (α) Analysis
IFN-α concentration is determined with a human multi-subtype calorimetric sandwich ELISA (Catalog Number 41105) from PBL Biomedical Laboratories, Piscataway, N.J. Results are expressed in pg/mL.
(§9) In total, the data output of the assay consists of concentration values of TNF-α and IFN-α (y-axis) as a function of compound concentration (x-axis).
Analysis of the data has two steps. First, the greater of the mean DMSO (DMSO control wells) or the experimental background (usually 20 pg/mL for IFN-α and 40 pg/mL for TNF-α) is subtracted from each reading. If any negative values result from background subtraction, the reading is reported as “*”, and is noted as not reliably detectable. In subsequent calculations and statistics, “*”, is treated as a zero. Second, all background subtracted values are multiplied by a single adjustment ratio to decrease experiment to experiment variability. The adjustment ratio is the area of the reference compound in the new experiment divided by the expected area of the reference compound based on the past 61 experiments (unadjusted readings). […] The reference compound used is 2-[4-amino-2-ethoxymethyl-6,7,8,9-tetrahydro-α,α-dimethyl-1H-imidazo[4,5-c]quinolin-1-yl]ethanol hydrate (U.S. Pat. No. 5,352,784; Example 91) and the expected area is the sum of the median dose values from the past 61 experiments. […]

Assay [1] relates to tumor necrosis factor (α) (TNF-α). The experiment in a line: Cytokine induction in human cells: TNF-α secreted by PBMC into culture media (ORIGEN M-Series immunoassay). It counts as cell-based. The following applies: Table 10; for minimal effective concentration: human PBMC, lowest tested concentration inducing TNF-α over usually 40 pg/mL, median where more than one experiment, read-out: Minimum Effective Concentration (μM) TNF; for Maximal Response (pg/mL) TNF: maximal response in dose response curve, * = below experimental background level, median.
From the text: as §1, §2, §3, §4, §5, §6, §7, §8
The TNF-α concentration is determined by ORIGEN M-Series Immunoassay and read on an IGEN M-8 analyzer from BioVeris Corporation, formerly known as IGEN International, Gaithersburg, Md. The immunoassay uses a human TNF-α capture and detection antibody pair (Catalog Numbers AHC3419 and AHC3712) from Biosource International, Camarillo, Calif. Results are expressed in pg/mL.
as §9
Analysis of the data has two steps. First, the greater of the mean DMSO (DMSO control wells) or the experimental background (usually 20 pg/mL for IFN-α and 40 pg/mL for TNF-α) is subtracted from each reading. If any negative values result from background subtraction, the reading is reported as “*”, and is noted as not reliably detectable. In subsequent calculations and statistics, “*”, is treated as a zero. Second, all background subtracted values are multiplied by a single adjustment ratio to decrease experiment to experiment variability. The adjustment ratio is the area of the reference compound in the new experiment divided by the expected area of the reference compound based on the past 61 experiments (unadjusted readings). […]

On to `COCc1nc2c(N)nc3cc(-c4cccnc4)ccc3c2n1CC(C)(C)O` [Analog 11], for which, in the assay on interferon (α) (IFN-α), the minimal effective concentration is listed as 0.37 µM and the “Maximal Response (pg/mL) IFN” value came out at 829 pg/mL. Moreover, in assay [1], the minimal effective concentration is 1.11 µM and the “Maximal Response (pg/mL) TNF” value is given as 3445 pg/mL.

Take `COCCc1nc2c(N)nc3cc(-c4cccnc4)ccc3c2n1CC(C)(C)O` [Analog 12]: in the assay on interferon (α) (IFN-α), the minimal effective concentration stood at 0.014 µM and the “Maximal Response (pg/mL) IFN” value is listed as 1065 pg/mL. Moreover, in assay [1], the minimal effective concentration was found to be 0.014 µM and the “Maximal Response (pg/mL) TNF” value was determined as 8386 pg/mL.

For `COCc1nc2c(N)nc3cc(-c4cncc(CO)c4)ccc3c2n1CC(C)(C)O` [Analog 13], in the assay on interferon (α) (IFN-α), the minimal effective concentration is given as 0.12 µM and the “Maximal Response (pg/mL) IFN” value is 1771 pg/mL. For the same compound, in assay [1], the minimal effective concentration is recorded as 3.33 µM and the “Maximal Response (pg/mL) TNF” value was determined as 8000 pg/mL.

On to `CCOCc1nc2c(N)nc3cc(-c4cncc(CO)c4)ccc3c2n1CC(C)(C)O` [Analog 14], for which, in the assay with interferon (α) (IFN-α), the minimal effective concentration is recorded as 0.014 µM and the “Maximal Response (pg/mL) IFN” value amounted to 6308 pg/mL. In addition, in assay [1], the minimal effective concentration came out at 0.12 µM and the “Maximal Response (pg/mL) TNF” value is recorded as 18284 pg/mL.

For `CCc1nc2c(N)nc3cc(-c4cncc(CO)c4)ccc3c2n1CC(C)(C)O` [Analog 15], in the assay on interferon (α) (IFN-α), the minimal effective concentration is 0.014 µM and the “Maximal Response (pg/mL) IFN” value came to 2084 pg/mL. In addition, in assay [1], the minimal effective concentration is reported as 1.11 µM and the “Maximal Response (pg/mL) TNF” value was found to be 10087 pg/mL.

For `COCCc1nc2c(N)nc3cc(-c4cncc(CO)c4)ccc3c2n1CC(C)(C)O` [Analog 16], in the assay on interferon (α) (IFN-α), the minimal effective concentration was found to be 0.014 µM and the “Maximal Response (pg/mL) IFN” value was determined as 5868 pg/mL. For the same compound, in assay [1], the minimal effective concentration was found to be 0.04 µM and the “Maximal Response (pg/mL) TNF” value was 16296 pg/mL.

On to `CCCc1nc2c(N)nc3cc(-c4cncc(CO)c4)ccc3c2n1CC(C)(C)O` [Analog 17], for which, in the assay on interferon (α) (IFN-α), the minimal effective concentration was found to be 0.014 µM and the “Maximal Response (pg/mL) IFN” value is 1079 pg/mL. Moreover, in assay [1], the minimal effective concentration is recorded as 0.12 µM and the “Maximal Response (pg/mL) TNF” value came out at 16482 pg/mL.

Turning to `CCOCc1nc2c(N)nc3cc(-c4cccnc4)ccc3c2n1CC1CCN(C(=O)C(C)C)CC1` [Analog 18], in the assay with interferon (α) (IFN-α), the minimal effective concentration is 0.12 µM and the “Maximal Response (pg/mL) IFN” value was determined as 2979 pg/mL. Moreover, in assay [1], the minimal effective concentration is 0.37 µM and the “Maximal Response (pg/mL) TNF” value was 1449 pg/mL.

Consider `CCc1nc2c(N)nc3cc(-c4cccnc4)ccc3c2n1CC1CCN(C(=O)C(C)C)CC1` [Analog 19], for which, in the assay on interferon (α) (IFN-α), the minimal effective concentration worked out at 0.12 µM and the “Maximal Response (pg/mL) IFN” value came to 1686 pg/mL. In addition, in assay [1], the minimal effective concentration is 1.11 µM and the “Maximal Response (pg/mL) TNF” value turned out to be 619 pg/mL.

Turning to `CCCc1nc2c(N)nc3cc(-c4cccnc4)ccc3c2n1CC1CCN(C(=O)C(C)C)CC1` [Analog 20], in the assay with interferon (α) (IFN-α), the minimal effective concentration is 0.12 µM and the “Maximal Response (pg/mL) IFN” value worked out at 1157 pg/mL. Also, in assay [1], the minimal effective concentration is 0.37 µM and the “Maximal Response (pg/mL) TNF” value was determined as 1054 pg/mL.

Turning to `COCCc1nc2c(N)nc3cc(-c4ccccc4)ccc3c2n1CCCN1CCCC1=O` [Analog 21], in the assay on interferon (α) (IFN-α), the minimal effective concentration was determined as 0.12 µM and the “Maximal Response (pg/mL) IFN” value came to 1880 pg/mL. In assay [1], the minimal effective concentration is on record as 1.11 µM and the “Maximal Response (pg/mL) TNF” value is listed as 201 pg/mL.

For `CCOCc1nc2c(N)nc3cc(-c4ccccc4)ccc3c2n1CCCN1CCCC1=O` [Analog 22], in the assay on interferon (α) (IFN-α), the minimal effective concentration is on record as 0.37 µM and the “Maximal Response (pg/mL) IFN” value is recorded as 1665 pg/mL. In assay [1], the minimal effective concentration came to 1.11 µM and the “Maximal Response (pg/mL) TNF” value is listed as 62 pg/mL.

As to `COCCc1nc2c(N)nc3cc(-c4ccccc4)ccc3c2n1CC(C)(C)O` [Analog 23], in the assay on interferon (α) (IFN-α), the minimal effective concentration amounted to 0.014 µM and the “Maximal Response (pg/mL) IFN” value is on record as 260 pg/mL. Besides, in assay [1], the minimal effective concentration amounted to 0.014 µM and the “Maximal Response (pg/mL) TNF” value was 2296 pg/mL.

For the compound `CCOCc1nc2c(N)nc3cc(-c4ccccc4)ccc3c2n1CC(C)(C)O` [Analog 24], in the assay with interferon (α) (IFN-α), the minimal effective concentration stood at 0.014 µM and the “Maximal Response (pg/mL) IFN” value is recorded as 440 pg/mL. In assay [1], the minimal effective concentration stood at 0.12 µM and the “Maximal Response (pg/mL) TNF” value was 2238 pg/mL.

In the case of `COCCc1nc2c(N)nc3cc(-c4cccnc4)ccc3c2n1CC(C)C` [Analog 25], in the assay on interferon (α) (IFN-α), the minimal effective concentration is on record as 0.014 µM and the “Maximal Response (pg/mL) IFN” value stood at 1199 pg/mL. Also, in assay [1], the minimal effective concentration was found to be 0.04 µM and the “Maximal Response (pg/mL) TNF” value is 3151 pg/mL.

In the case of `CCOCc1nc2c(N)nc3cc(-c4cccnc4)ccc3c2n1CC(C)C` [Analog 26], in the assay on interferon (α) (IFN-α), the minimal effective concentration came out at 0.014 µM and the “Maximal Response (pg/mL) IFN” value was found to be 591 pg/mL. Besides, in assay [1], the minimal effective concentration came out at 0.12 µM and the “Maximal Response (pg/mL) TNF” value is 647 pg/mL.

Consider `COCCc1nc2c(N)nc3cc(-c4cncc(CO)c4)ccc3c2n1CC(C)C` [Analog 27], for which, in the assay with interferon (α) (IFN-α), the minimal effective concentration was determined as 0.014 µM and the “Maximal Response (pg/mL) IFN” value is 1332 pg/mL. Besides, in assay [1], the minimal effective concentration was found to be 0.04 µM and the “Maximal Response (pg/mL) TNF” value is given as 9563 pg/mL.

For `CCOCc1nc2c(N)nc3cc(-c4cncc(CO)c4)ccc3c2n1CC(C)C` [Analog 28], in the assay with interferon (α) (IFN-α), the minimal effective concentration amounted to 0.04 µM and the “Maximal Response (pg/mL) IFN” value is given as 1263 pg/mL. Also, in assay [1], the minimal effective concentration is given as 0.37 µM and the “Maximal Response (pg/mL) TNF” value is recorded as 3885 pg/mL.

Regarding `CCCNC(=O)NCCCCn1c(COCC)nc2c(N)nc3cc(-c4cccnc4)ccc3c21` [Analog 29], in the assay on interferon (α) (IFN-α), the minimal effective concentration is listed as 0.04 µM and the “Maximal Response (pg/mL) IFN” value was found to be 936 pg/mL. Also, in assay [1], the minimal effective concentration is on record as 1.11 µM and the “Maximal Response (pg/mL) TNF” value was 1059 pg/mL.

With `CCCNC(=O)NCCCCn1c(CCC)nc2c(N)nc3cc(-c4cccnc4)ccc3c21` [Analog 30], in the assay with interferon (α) (IFN-α), the minimal effective concentration is recorded as 0.37 µM and the “Maximal Response (pg/mL) IFN” value worked out at 531 pg/mL. Moreover, in assay [1], the minimal effective concentration is recorded as 0.37 µM and the “Maximal Response (pg/mL) TNF” value is 5284 pg/mL.

For the origin of these results see patent publication US8846710B2, “Method of preferentially inducing the biosynthesis of interferon” (3M Innovative Properties Company, priority 2005, dated 2014).
